From patent US20250114313A1, “OLIGO-BENZAMIDE ANALOGS AND THEIR USE IN CANCER TREATMENT” (BOARD OF REGENTS, THE UNIVERSITY OF TEXAS SYSTEM, priority 2022, published 2025)
“Also recorded” adds a separate entry of the source. Like-named read-outs stand apart in the source and are kept apart here.

Assays:
[1] = system: ERα-positive breast cancer cells (MCF-7, ZR-75); assay: MTT cell viability, ERα-positive breast cancer cells; assay type: cell-based, Human; details: MCF-7 and ZR-75, read-out: anti-proliferative IC50
Description: (§1) Cell viability assays: Cells were seeded in 96-well plates (2×10^3 cells/well) one day before the treatment. Cells were treated with varying concentrations of ERX-41 or ERX-11 analogs for 3-6 days. Then effects of ERX-41 or ERX-11 analogs on cell viability were measured in triplicate or sextuplicate with multiple biological replicates using the WST-1 (Promega), MTT as previously described^33 or CellTiter-Glo 2.0 (Promega) assays.

[2] = earlier finding; cited from earlier work
[3] = system: TNBC cells (SUM-159, MDA-MB-231); assay: MTT cell viability, TNBC cells; assay type: cell-based, Human
Description: as §1

[4] = system: ERα-positive breast cancer cells (MCF-7, ZR-75); details: therapy-sensitive and therapy-resistant ERα-positive breast cancers; inventors' previous work; read-out: IC50, block of ERα signaling and ERα-driven proliferation; cited from earlier work
[5] = target: T1, ER Alpha-LBD (GST) (Homo sapiens, UniProt P03372); assay: LanthaScreen TR-FRET ER alpha Coactivator Assay, antagonist mode; assay type: binding; details: 2 h incubation
T1 construct: 3.5 nM ER Alpha-LBD (GST); purchased life technologies A15885
T1 sequence (P03372 311-547 limits assumed): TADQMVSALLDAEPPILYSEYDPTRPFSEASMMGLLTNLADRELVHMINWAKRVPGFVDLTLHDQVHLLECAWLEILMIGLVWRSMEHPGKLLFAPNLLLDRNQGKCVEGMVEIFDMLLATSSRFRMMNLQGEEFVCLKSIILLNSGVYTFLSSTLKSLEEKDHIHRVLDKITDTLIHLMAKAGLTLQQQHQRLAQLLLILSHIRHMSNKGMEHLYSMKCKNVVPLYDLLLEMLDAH

[6] = ERX-315 in syngeneic D2A1 tumor model, organ evaluation; assay type: in vivo, mice; details: syngeneic D2A1 tumors
[7] = system: BC xenografts expressing the Y537S ERα mutant (ZR75, MCF7); assay: ERX-315 in therapy resistant BC xenografts (Y537S ERα mutant ZR75, MCF7); assay type: in vivo, mouse
[8] = system: ovarian cancer cells and breast cancer cells; assay: ERX-315 in cancer cell lines; assay type: cell-based
[9] = system: TNBC; assay: ER stress, cell death and lysosomes in TNBC (discussion, no method); assay type: cell-based
[10] = target: T2, LAL lipase activity (Homo sapiens, UniProt P38571); assay: Lipase activity assay (4-MUP), SUM-159 cell lysate; assay type: biochemical
T2 construct: heat stability of LAL or vinculin protein in SUM-159 cells; endogenous in cells; host or cells: SUM-159
T2 sequence (P38571 77-399): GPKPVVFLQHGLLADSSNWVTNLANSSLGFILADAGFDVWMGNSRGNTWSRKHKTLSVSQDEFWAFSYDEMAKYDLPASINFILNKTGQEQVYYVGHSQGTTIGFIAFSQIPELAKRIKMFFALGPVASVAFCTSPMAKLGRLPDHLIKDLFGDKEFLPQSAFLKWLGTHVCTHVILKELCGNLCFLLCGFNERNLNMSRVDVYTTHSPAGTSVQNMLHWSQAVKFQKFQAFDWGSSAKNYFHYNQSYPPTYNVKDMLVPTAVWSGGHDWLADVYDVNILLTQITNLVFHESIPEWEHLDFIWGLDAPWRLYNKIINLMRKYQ
Description: Lipase activity assay: Lipase activity assays were performed as described previously (Dairaku, et al)^37. Briefly, a 0.345 mM substrate solution was prepared from 1.2 mL of 13.3 mM 4-MUP and 42 mL of 100 mM sodium acetate buffer pH 4.0, 1.0% (v/v) Triton X-100 and 3.0 mL of 0.5% (w/v) cardiolipin. For the enzyme reaction, 50 μL of the substrate in buffer solution, 40 μL of diluted cell lysate and 10 μL of DMSO or 30 μM Lalistat2 or 30 μM ERX-41 were combined in a black 96-well plate. The plates were sealed with an adhesive aluminum film and incubated in a 37° C. incubator for 1 h. The reactions were terminated using 200 μL of 150 mM EDTA at pH 11.5. The fluorescence of the plates were read immediately with synergy H1 fluorescence microplate reader (BioTek) using a 365-nm excitation filter and a 450-nm emission filter. The LIPA lipase activity was calculated by subtracting the enzymatic activity of the inhibited (with Lalistat2) reaction from that of the uninhibited (without Lalistat2) reaction.

[11] = system: SUM-159 cells with LIPA KO; assay: UPR induction and protein synthesis in SUM-159 cells with LIPA KO (RNA-seq, RT-qPCR, western); assay type: cell-based, Human; details: known ER stress inducers
Description: Western blotting: Whole cell lysates from breast cancer cells were prepared with 2× sample buffer (60 mM Tris-HCl, pH 6.8, 2% sodium dodecyl sulfate, 10% glycerol), and before loading mixed with loading buffer (5% 2-mercaptoethanol, 0.1% bromophenol blue) and boiled for denaturation, as previously described.^33 Proteins were separated by SDS-PAGE and subjected to Western analysis using antibodies. To detect nascent translated proteins, puromycin (final concentration 10 μg/mL) was added into cell plates 30 minutes before harvesting cells. Then samples were subjected to the Western blotting. Nascent proteins were detected by anti-puromycin antibody.
Real-time quantitative PCR (RT-qPCR): Total RNA was prepared from breast cancer cells using the RNeasy Mini Kit (Qiagen) according to the manufacturer protocols. Subsequently, total RNAs were reverse transcribed into cDNA using iScript Reverse Transcription Supermix (Bio-rad) and by using SYBR Green on an Illumina Real-Time PCR system.
RNA-sequencing: mRNA-seq sequencing library construction was performed using TruSeq RNA Library Preparation Kit (Illumina) according to the manufacturer's instructions. FASTQ reads from Genomics Core at UTSW were mapped to Human GRCh38 genome using HiSAT2 (RRID:SCR_015530). Differential expression analysis is performed using DEseq2 (RRID:SCR_015687). Abundances of transcripts are calculated using ballgown (Frazee et al. 2014). The values of Fragments Per Kilobase of transcript per Million mapped reads (FPKM) were used for Gene Set Enrichment Analysis (GSEA). GSEA was performed by using the GSEA software (RRID:SCR_005724) and C5 ontology gene sets (14765 gene sets in total). mRNA-seq data from this study are available from NCBI GEO under accession #GSE168800.

## CC(C)COc1cc(C(N)=O)ccc1NC(=O)c1ccc(NC(=O)c2ccc([N+](=O)[O-])c(OCCO)c2)c(OCC(C)C)c1 [ERX-11, reference compound]
[1]
  IC50: 200 to 500 nM
[2]
  oral bioavailability: orally bioavailable
[3]; MTT, SUM-159 and MDA-MB-231, read-out: IC50 against TNBC cells
  IC50: > 10000 nM
[3]; TNBC cells (lack expression of ERα)
  anti-tumor activity in TNBC cells: did not show anti-tumor activity
[4]
  IC50: 200 to 500 nM
[5]
  interaction with ERα LBD: interact with ERG LBD

## CC(C)COc1cc(C(=O)Nc2ccc(C(=O)N[C@H]3CC[C@H](C(=O)Nc4cnc5ccccc5c4)CC3)cc2OCC(C)C)ccc1NC(=O)c1ccc(F)c(OCCO)c1 [ERX-315]
[6]
  immunogenicity, immune infiltrates in spleen, lymph nodes, kidney, liver: not immunogenic
[7]; histologic evaluation
  Ki67 proliferation indices of tumors: dramatically decreased K167 proliferation indices
[7]; oral, captisol formulation, listed as TK315
  activity against therapy resistant BC xenografts: decreased the growth and tumor weight; also recorded: potent activity
[7]; oral, listed as TK315
  mouse liver or body weight: No change in body weight; also recorded: no effect on mouse liver or body weight
[8]; FIG. 17
  effectiveness in cell culture models of cancer: effective in each cell line tested
[8]; read-out: IC50 against ovarian cancer cells and breast cancer cells
  IC50: 10 to 50 nM

## O=C(Oc1nsnc1N1CCCCC1)N1CCCCC1 [Lalistat 2]
[9]
  induction of ER stress or cell death in TNBC: does not induce ER stress or cell death in TNBC
[10]; LIPA-KO cells
  lipase function (other lipases) in LIPA-KO cells: lack of inhibitory activity on lipase function
[10]; SUM-159 cells, 30 μM
  lipase activity of LIPA: attenuated lipase activity

## C[C@]12CC[C@@H]3c4ccc(O)cc4C[C@@H](CCCCCCCCC[S+]([O-])CCCC(F)(F)C(F)(F)F)[C@H]3[C@@H]1CC[C@@H]2O (stereo partly drawn) [fulvestrant]
[5]
  interaction with ERα LBD: interact with ERG LBD

## C/C=C(/C)C(=O)O[C@H]1C(C)=C2[C@H]([C@@H]1OC(=O)CCCCCCC)[C@@](C)(OC(C)=O)C[C@H](OC(=O)CCC)[C@@]1(O)[C@H]2OC(=O)[C@@]1(C)O [thapsigargin, reference compound]
[11]
  inducibility of UPR genes in LIPA KO cells: preserved

## tunicamycin [reference compound]
[11]
  inducibility of UPR genes in LIPA KO cells: preserved
